# Reference: patent publication US10351587B2, “Method of making and using 7α, 11β-dimethyl-17β-hydroxyestr-4-en-3-one 17-undecanoate” (The United States of America, as represented by the …, priority 2000, dated 2019)
# Where “and” joins values, the source holds several entries; their conditions need not be identical. Identical values can stand only once. Entries after “also recorded” stand apart in the source; their conditions may differ.
# How the values were obtained:
# [1] = tested on: castrate Sprague-Dawley rats; assay: Hershberger test, subcutaneous administration for seven days (ventral prostate weight); assay type: in vivo; settings: for Androgenic Potency of Corresponding Alcohol: ventral prostate weight assay following subcutaneous administration, alcohol of G = 1.0 (assigned), value is for the free alcohol of the listed ester
# Method: (§1) Immature (about 21-day-old) Sprague-Dawley rats were orchidectomized under anesthesia, and randomly assignee to groups of ten animals for each dose level of the active undergoing testing. Each active was dissolved in 10% ethanol/sesame oil and administered by gavage (oral) or subcutaneous injection each day for seven days beginning on the date of the orchidectomy. The animals were sacrificed 24 hours after the last dose, and the ventral prostate and seminal vesicles were excised, cleaned of fat and connective tissue, blotted on moist filter paper and weighed to the nearest 0.1 mg. Regression analysis was performed by conventional methods using a PROPHET data management system. Ventral prostate weight was used as the endpoint because it is the sensitive organ to androgenic stimulation.
# as §1, with “by” for “by gavage (oral) or”, “mg. See, e.g., Hershberger, L. et al, Myotrophic Activity of 19-nortestosterone And Other Steroids Determined By Modified Levator And Muscle Method, Proc. Soc. Exptl. Biol. Med. 83 175-180 (1953).” for “mg.”, “system. See, e.g., Bliss, C., The Statistics of Bioassay (Academic Press, New York, 1952); Hollister, C., Nucleic Acids Res. 16 1873-75 (1988).” for “system.”
# [2] = tested on: castrate Sprague-Dawley rats; assay: Duration of activity after a single subcutaneous injection (ventral prostate weight over weeks, AUC); assay type: in vivo; settings: single subcutaneous injection; for AUC of ventral prostate weight (FIG. 5): n=5
# Method: as §1, with “was” for “was dissolved in 10% ethanol/sesame oil and”, “by” for “by gavage (oral) or”
# Except for testosterone enanthate, each active was formulated in two different carriers: (1) an aqueous suspension and (2) in sesame oil. Testosterone enanthate was formulated using the sesame oil carrier only, because it exists as a liquid at room temperature and could not therefore be formulated as an aqueous suspension.
# The carrier used to provide the aqueous suspension was formulated as follows: 1 g benzyl alcohol, 0.5 g sodium carboxylethyl cellulose 50, 0.376 g disodium hydrogen phosphate dihydrate, 1.495 g sodium dihydrogen phosphate dihydrate, with water for injection (WFI) being added to bring volume of the carrier up to 100 ml.
# Each formulation was prepared at a concentration of 0.6 mg/0.2 ml.
# Immature (about 21-day-old) Sprague-Dawley rats were orchidectomized under anesthesia, and randomly assignee to groups of 40 or more. Animals received a single subcutaneous injection of 0.6 mg of each ester in 0.2 ml of an aqueous suspending carrier and/or oily carrier (10% ethanol/90% sesame oil or ethyl oleate) on the date of the orchidectomy. In cases where the ester was not solid at room temperature, 10% ethanol/sesame oil or ethyl oleate was used as the carrier. In this example, the carrier used to provide the aqueous suspension was formulated as follows: 1 g benzyl alcohol, 0.5 g sodium carboxylethyl cellulose 50, 0.376 g disodium hydrogen phosphate dihydrate, 1.495 g sodium dihydrogen phosphate dihydrate, with water for injection (WFI) being added to bring volume of the carrier up to 100 ml.
# Five animals from each group were sacrificed at weekly or biweekly intervals, and the ventral prostate and seminal vesicles were excised, cleaned of fat and connective tissue, blotted on moist filter paper and weighed to the nearest 0.1 mg.
# Ventral prostate weight was used as the endpoint because it is the sensitive organ to androgenic stimulation. Regression analysis was performed by conventional methods using the PROPHET data management system previously identified.
# Immature (about 21-day-old) Sprague-Dawley rats were orchidectomized under anesthesia, and randomly assignee to groups of 40 or more. Animals received a single subcutaneous injection of 0.6 mg of the undecanoate in 0.2 ml of an aqueous suspending carrier and/or oily carrier (10% ethanol/90% sesame oil containing 5 mg/ml chlorobutanol as a preservative, or ethyloleate) on the date of the orchidectomy. The enanthate ester was formulated using the 10% ethanol/sesame oil or ethyloleate carrier as a first standard, with the 10% ethanol/sesame oil carrier used as a second standard.
# In this example, the carrier used to provide the aqueous suspension was formulated as follows: 1 g benzyl alcohol, 0.5 g sodium carboxylethyl cellulose 50, 0.376 g disodium hydrogen phosphate dihydrate, 1.495 g sodium dihydrogen phosphate dihydrate, with water for injection (WFI) being added to bring volume of the carrier up to 100 ml.
SMILES,Androgenic Potency of Corresponding Alcohol [1],"AUC of ventral prostate weight (FIG. 5) ([2]; 0.6 mg, S.O. (sesame oil))","Long-term androgenic activity (ventral prostate weight over time), in words [2]",other results
"CCCC[C@H]1CC[C@H](C(=O)O[C@H]2CC[C@H]3[C@H]4[C@H](CC[C@]23C)[C@H]2CCC(=O)C=C2C[C@H]4C)CC1 [A, 7α-Methyl-19-nortestosterone-17β-bucyclate]",8.1^3,,,
"CCCC[C@H]1CC[C@H](C(=O)O[C@H]2CC[C@H]3[C@H]4[C@H](CC[C@]23C)[C@H]2CCC(=O)C[C@@H]2C[C@H]4C)CC1 [B, 7α-Methyl-5α-dihydro-19-nortestosterone-17β-bucyclate]",1.2,,,
"CCCC[C@H]1CC[C@H](C(=O)O[C@H]2CC=C3[C@@H]4[C@H](C)CC5=CC(=O)CC[C@]5(C)[C@H]4CC[C@@]32C)CC1 [C, 7α-Methyl-14-dehydro-testosterone-17β-bucyclate]",61.1,,,
"C[C@]12CC[C@H]3[C@@H](CCC4=CC(=O)CC[C@@]43C)[C@@H]1CC[C@@H]2O [CDB-111C, testosterone]",,,,"Androgenic activity Potency Ratio, subcutaneous ([1]; subcutaneous daily for 7 days in 10% EtOH/sesame oil, testosterone subcutaneous standard = 1.0 (assigned), ventral prostate weight): 1.00"
"CCCCCCC(=O)O[C@H]1CC[C@H]2[C@@H]3CCC4=CC(=O)CC[C@]4(C)[C@H]3CC[C@]12C [CDB-112E, testosterone enanthate]",,497,,"AUC of ventral prostate weight (FIG. 15) ([2]; 0.6 mg, 10% EtOH/Sesame Oil, 10 week period, listed as CDB-112F): 559 mg-weeks and 559.28 mg-weeks"
"C[C@@H]1CC2=CC(=O)CC[C@@H]2[C@@H]2[C@@H]1[C@@H]1CC[C@H](O)[C@@]1(C)C[C@@H]2C [CDB-1321D, 7α,11β-Dimethyl-17β-hydroxy-4-estren-3-one]",,166,,"AUC of ventral prostate weight (FIG. 5) ([2]; 0.6 mg, ASV (aqueous suspending vehicle)): 460"
"CCCCC1CCC(C(=O)O[C@H]2CC[C@H]3[C@@H]4CCC5=CC(=O)CC[C@]5(C)[C@H]4CC[C@]23C)CC1 (stereo partly drawn) [CDB-1781a, Testosterone bucyclate]",1.0 (assigned),186,significantly less,"AUC of ventral prostate weight (FIG. 5) ([2]; 1.0 mg, ASV (aqueous suspending vehicle)): 683"
"CCCC[C@H]1CC[C@H](C(=O)O[C@H]2CC=C3[C@H]4[C@H](CC[C@@]32C)[C@H]2CCC(=O)C=C2C[C@H]4C)CC1 [CDB-4327A, 7α-Methyl-14-dehydro-19-nortestosterone-17β-bucyclate]",,,surprising stimulation of ventral prostate size over the entire 20-week observation period,
CCCCC1CCC(C(=O)O[C@H]2CC[C@H]3[C@H]4[C@H]([C@H](C)C[C@]23C)[C@H]2CCC(=O)C=C2C[C@H]4C)CC1 (stereo partly drawn) [CDB-4386],,,inactive; also recorded: relatively low activity,
"CCCCC1CCC(C(=O)OC2CCCC3C4C(C)CC5=CC(=O)CCC5(C)C4CCC23C)CC1 [D, 7α-Methyl-D-homo-testosterone-17β-bucyclate]",36.4-61.7^3,,,
